In BindingDB's records for doi:10.7270/Q2ZC817P (The Scripps Research Institute Molecular Screening Center, 2007):

Target: Sphingosine 1-phosphate receptor 1 (Homo sapiens, UniProt P21453)
Test: potentiators of S1P1 agonist response, dose response, cell-based, potentiator mode, 60K MLSMR set (AID 466)

Sphingosine 1-phosphate receptor 1, sequence (P21453 whole entry): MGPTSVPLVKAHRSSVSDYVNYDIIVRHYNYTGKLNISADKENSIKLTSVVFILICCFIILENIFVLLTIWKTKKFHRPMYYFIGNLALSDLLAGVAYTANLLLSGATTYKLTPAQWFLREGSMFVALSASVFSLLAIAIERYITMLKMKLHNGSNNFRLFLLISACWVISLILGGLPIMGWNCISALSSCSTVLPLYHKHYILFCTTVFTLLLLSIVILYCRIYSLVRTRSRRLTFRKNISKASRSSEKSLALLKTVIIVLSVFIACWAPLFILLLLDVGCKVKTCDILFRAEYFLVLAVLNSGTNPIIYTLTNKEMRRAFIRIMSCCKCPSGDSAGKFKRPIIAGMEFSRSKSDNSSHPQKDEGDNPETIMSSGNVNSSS

SMILES: CN(C)S(=O)(=O)c1ccc(C(=O)Nc2nc(-c3cccs3)cs2)cc1 [4-(dimethylsulfamoyl)-N-(4-thiophen-2-yl-1,3-thiazol-2-yl)benzamide]
- EC50: > 10 µM
